Legend:
Aβ42 [1] = experiment: Method 2: Aβ42 Alphalisa on supernatant of SKNBE2 cells carrying APP 695 wild type; assay type: cell-based; conditions: Homo sapiens, SKNBE2 cells APP 695 wild type, overnight
Procedure: (§1) Screening was carried out using SKNBE2 cells carrying the APP 695—wild type, grown in Dulbecco's Modified Eagle's Medium/Nutrient mixture F-12 (DMEM/NUT-mix F-12) (HAM) provided by Invitrogen (cat no. 10371-029) containing 5% Serum/Fe supplemented with 1% non-essential amino acids, 1-glutamine 2 mM, Hepes 15 mM, penicillin 50 U/ml (units/ml) en streptomycin 50 μg/ml. Cells were grown to near confluency.
(§2) The screening was performed using a modification of the assay as described in Citron et al (1997) Nature Medicine 3: 67. Briefly, cells were plated in a 384-well plate at 10^4 cells/well in Ultraculture (Lonza, BE12-725F) supplemented with 1% glutamine (Invitrogen, 25030-024), 1% non-essential amino acid (NEAA), penicillin 50 U/ml en streptomycin 50 μg/ml in the presence of test compound at different test concentrations. The cell/compound mixture was incubated overnight at 37° C., 5% CO2, The next day the media were assayed by two sandwich immuno-assays, for Aβ42 and Aβtotal.
(§3) Aβtotal and Aβ42 concentrations were quantified in the cell supernatant using the Aphalisa technology (Perkin Elmer). Alphalisa is a sandwich assay using biotinylated antibody attached to streptavidin coated donorbeads and antibody conjugated to acceptor beads. In the presence of antigen, the beads come into close proximity. The excitation of the donor beads provokes the release of singlet oxygen molecules that trigger a cascade of energy transfer in the acceptor beads, resulting in light emission. To quantify the amount of Aβ42 in the cell supernatant, monoclonal antibody specific to the C-terminus of Aβ42 (JRF/cAβ42/26) was coupled to the receptor beads and biotinylated antibody specific to the N-terminus of AB (JRF/AβN/25) was used to react with the donor beads. To quantify the amount of Aβtotal in the cell supernatant, monoclonal antibody specific to the N-terminus of AB (JRF/AβN/25) was coupled to the receptor beads and biotinylated antibody specific to the mid region of Aβ (biotinylated 4G8) was used to react with the donor beads.
(§4) To obtain the values reported in Table 3b, the data were calculated as percentage of the maximum amount of amyloid Beta 42 measured in the absence of the test compound. The sigmoidal dose response curves were analyzed using non-linear regression analysis with percentage of the control plotted against the log concentration of the compound. A 4-parameter equation was used to determine the IC50.

Aβtotal [2] = experiment: Method 2: Aβtotal Alphalisa on supernatant of SKNBE2 cells carrying APP 695 wild type; assay type: cell-based; conditions: Homo sapiens, SKNBE2 cells APP 695 wild type, overnight
Procedure: as §1, §2, §3, §4

Aβtotal [3] = experiment: Method 1: Aβtotal sandwich ELISA on media of SKNBE2 cells carrying APP 695 wild type; assay type: cell-based; conditions: Homo sapiens, SKNBE2 cells APP 695 wild type, 18 hours
Procedure: as §1, with “Gibco” for “Invitrogen”, “31330-38)” for “10371-029)”, “acids.” for “acids, 1-glutamine 2 mM, Hepes 15 mM, penicillin 50 U/ml (units/ml) en streptomycin 50 μg/ml.”
(§5) The screening was performed using the assay as described in Citron et al (1997) Nature Medicine 3: 67. Briefly, cells were plated in a 96-well plate at about 10^5 cells/ml one day prior to addition of compounds. Compounds were added to the cells in Ultraculture (Lonza, BE12-725F) supplemented with 1% glutamine (Invitrogen, 25030-024) for 18 hours. The media were assayed by two sandwich ELISAs, for Aβ42 and Aβtotal. Toxicity of the compounds was assayed by WST-1 cell proliferation reagent (Roche, 1 644 807) according to the manufacturer's protocol.
To quantify the amount of Aβtotal in the cell supernatant, samples and standards were added to a 6E10-coated plate. The plate was allowed to incubate overnight at 4° C. in order to allow formation of the antibody-amyloid complex. Following this incubation and subsequent wash steps a selective anti-AB-antibody conjugate (biotinylated 4G8) was added and incubated for a minimum of 1 hour in order to allow formation of the antibody-Amyloid-antibody-complex. After incubation and appropriate wash steps, a Streptavidine-Peroxidase-Conjugate was added, followed 30 minutes later by an addition of Quanta Blu fluorogenic peroxidase substrate according to the manufacturer's instructions (Pierce Corp., Rockford, Il).
(§6) To obtain the values reported in Table 3a, the sigmoidal dose response curves were analysed by computerised curve-fitting, with percent of inhibition plotted against compound concentration. A 4-parameter equation (model 205) in XLfit was used to determine the IC50. The top and the bottom of the curve were fixed to 100 and 0, respectively, and the hill slope was fixed to 1. The IC50 represents the concentration of a compound that is required for inhibiting a biological effect by 50% (Here, it is the concentration where Aβ peptide level is reduced by 50%).

Aβ42 [4] = experiment: Method 1: Aβ42 sandwich ELISA on media of SKNBE2 cells carrying APP 695 wild type (γ-secretase-modulating activity); assay type: cell-based; conditions: Homo sapiens, SKNBE2 cells APP 695 wild type, 18 hours
Procedure: as §1, with “Gibco” for “Invitrogen”, “31330-38)” for “10371-029)”, “acids.” for “acids, 1-glutamine 2 mM, Hepes 15 mM, penicillin 50 U/ml (units/ml) en streptomycin 50 μg/ml.”
as §5
To quantify the amount of Aβ42 in the cell supernatant, commercially available Enzyme-Linked-Immunosorbent-Assay (ELISA) kits were used (Innotest® β-Amyloid(1-42), Innogenetics N.V., Ghent, Belgium). The Aβ42 ELISA was performed essentially according to the manufacturer's protocol. Briefly, the standards (dilutions of synthetic A131-42) were prepared in polypropylene Eppendorf with final concentrations of 8000 down to […] (½ dilution step). Samples, standards and blanks (100 μl) were added to the anti-Aβ42-coated plate supplied with the kit (the capture antibody selectively recognizes the C-terminal end of the antigen). The plate was allowed to incubate 3 h at 25° C. in order to allow formation of the antibody-amyloid complex. Following this incubation and subsequent wash steps a selective anti-A13-antibody conjugate (biotinylated 3D6) was added and incubated for a minimum of 1 hour in order to allow formation of the antibody-Amyloid-antibody-complex. After incubation and appropriate wash steps, a Streptavidine-Peroxidase-Conjugate was added, followed 30 minutes later by an addition of 3,3′,5,5′-tetramethylbenzidine (TMB)/peroxide mixture, resulting in the conversion of the substrate into a coloured product. This reaction was stopped by the addition of sulfuric acid (0.9 N) and the colour intensity was measured by means of photometry with an ELISA-reader with a 450 nm filter.
as §6

Question: Which melting point does the source give for `COc1cccc(-n2nc3c(Nc4ccc(-c5cnn(C)c5)c(F)c4)cccc3c2C)c1` [Compound 7, N-[3-fluoro-4-(1-methyl-1H-pyrazol-4-yl)phenyl]-2-(3-methoxyphenyl)-3-methyl-2H-indazol-7-amine] here?
Answer: 239.1 °C

Question: What about the IC50 (Aβ42 [1]) of the same compound?
Answer: 55 nM

Question: And the IC50 (Aβtotal [2])?
Answer: > 10000 nM

Question: And the IC50 (Aβtotal [3])?
Answer: > 3000 nM

Question: And the IC50 (Aβ42 [4])?
Answer: 229 nM

Question: Which melting point does the source give for `Cc1ncn(-c2ccc(Nc3cccc4c(C)n(-c5ccc(F)cc5F)nc34)cc2F)n1` [Compound 23, 2-(2,4-difluorophenyl)-N-[3-fluoro-4-(3-methyl-1H-1,2,4-triazol-1-yl)phenyl]-3-methyl-2H-indazol-7-amine] here?
Answer: 146.9 °C

Question: And the IC50 (Aβ42 [1])?
Answer: 724 nM

Question: What about the IC50 (Aβtotal [2]) of the same compound?
Answer: > 10000 nM

Question: And the IC50 (Aβ42 [4])?
Answer: 1040 nM

Question: Which melting point does the source give for `Cc1ncc(-c2ccc(Nc3cccc4c(CN)n(-c5ccc(F)cc5)nc34)cc2)o1` [Compound 8, 2-(4-fluorophenyl)-7-[[4-(2-methyl-5-oxazolyl)phenyl]amino]-2H-indazole-3-methanamine] here?
Answer: 137 °C

Question: What about the IC50 (Aβ42 [1]) of the same compound?
Answer: 177 nM

Question: What about the IC50 (Aβtotal [2]) of the same compound?
Answer: > 10000 nM

Question: What about the IC50 (Aβtotal [3]) of the same compound?
Answer: > 10000 nM

Question: What about the IC50 (Aβ42 [4]) of the same compound?
Answer: 180 nM

Question: Which melting point does the source give for `Cc1ncc(-c2ccc(Nc3cccc4cn(CC(F)(F)F)nc34)cn2)o1` [Compound 44, N-[6-(2-methyl-5-oxazolyl)-3-pyridinyl]-2-(2,2,2-trifluoroethyl)-2H-indazol-7-amine] here?
Answer: 153.4 °C

Question: What about the IC50 (Aβ42 [1]) of the same compound?
Answer: 363 nM

Question: What about the IC50 (Aβtotal [2]) of the same compound?
Answer: > 10000 nM

Question: What about the IC50 (Aβtotal [3]) of the same compound?
Answer: > 3000 nM

Question: And the IC50 (Aβ42 [4])?
Answer: 513 nM

Question: With `Cc1ncc(-c2ccc(Nc3cccc4cn(-c5ccc6c(c5)OCO6)nc34)cc2)o1` [Compound 34, 2-(1,3-benzodioxol-5-yl)-N-[4-(2-methyl-5-oxazolyl)phenyl]-2H-indazol-7-amine] as the compound, how does the melting point read?
Answer: 175 °C

Question: And the IC50 (Aβ42 [1])?
Answer: 479 nM

Question: And the IC50 (Aβtotal [2])?
Answer: > 10000 nM

Question: What about the IC50 (Aβ42 [4]) of the same compound?
Answer: 359 nM

Question: What does the source list for `Cc1ncn(-c2ccc(Nc3cccc4c(C)n(CCCC(F)(F)F)nc34)cc2F)n1` [Compound 22, N-[3-fluoro-4-(3-methyl-1H-1,2,4-triazol-1-yl)phenyl]-3-methyl-2-(4,4,4-trifluorobutyl)-2H-indazol-7-amine]?
Answer: melting point: 135.6 °C; IC50 (Aβ42 [1]): > 3000 nM; IC50 (Aβtotal [2]): > 3000 nM; IC50 (Aβtotal [3]): > 3000 nM; IC50 (Aβ42 [4]): > 3000 nM

Question: For `COc1cccc(-n2nc3c(Nc4ccc(-c5cnc(C)o5)cc4)nccc3c2C)c1` [Compound 35, 2-(3-methoxyphenyl)-3-methyl-N-[4-(2-methyl-5-oxazolyl)phenyl]-2H-pyrazolo[3,4-c]pyridin-7-amine], which melting point is on record?
Answer: 185 °C

Question: And the IC50 (Aβ42 [1])?
Answer: 166 nM

Question: And the IC50 (Aβtotal [2])?
Answer: > 10000 nM

Question: And the IC50 (Aβtotal [3])?
Answer: > 3000 nM

Question: What about the IC50 (Aβ42 [4]) of the same compound?
Answer: 382 nM

Question: Which melting point does the source give for `Cc1cn(-c2ccc(Nc3cccc4cn(CC(F)(F)F)nc34)cc2F)cn1` [Compound 52, N-[3-fluoro-4-(4-methyl-1H-imidazol-1-yl)phenyl]-2-(2,2,2-trifluoroethyl)-2H-indazol-7-amine] here?
Answer: 144.9 °C

Question: What about the IC50 (Aβ42 [1]) of the same compound?
Answer: 339 nM

Question: And the IC50 (Aβtotal [2])?
Answer: > 10000 nM

Question: What does the source list for `Cc1ncc(-c2ccc(Nc3cccc4c(C#N)n(-c5ccc(F)cc5)nc34)cc2)o1` [Compound 32, 2-(4-fluorophenyl)-7-[[4-(2-methyl-5-oxazolyl)phenyl]amino]-2H-indazole-3-carbonitrile]?
Answer: melting point: 237.9 °C; IC50 (Aβ42 [1]): > 3000 nM; IC50 (Aβtotal [2]): > 3000 nM; IC50 (Aβtotal [3]): > 3000 nM; IC50 (Aβ42 [4]): 2130 nM

Question: For `COc1cc(Nc2cccc3c(C)n(-c4ccc(F)cc4)nc23)ccc1-c1cnc(C)o1` [Compound 40, 2-(4-fluorophenyl)-N-[3-methoxy-4-(2-methyl-5-oxazolyl)phenyl]-3-methyl-2H-indazol-7-amine], which melting point is on record?
Answer: 164.4 °C

Question: What about the IC50 (Aβ42 [1]) of the same compound?
Answer: 32 nM

Question: What about the IC50 (Aβtotal [2]) of the same compound?
Answer: 5500 nM

Question: And the IC50 (Aβtotal [3])?
Answer: > 3000 nM

Question: What about the IC50 (Aβ42 [4]) of the same compound?
Answer: 186 nM

From patent US20120095036A1, “NOVEL SUBSTITUTED INDAZOLE AND AZA-INDAZOLE DERIVATIVES AS GAMMA SECRETASE MODULATORS” (priority 2009, published 2012)
